Data taken from PMC12673148, “Structural basis of protease-activated receptor 2 activation and biased agonism” (Cell Discovery, 2025).
Like-named read-outs stand apart in the source and are kept apart here.

Tests used:
PAR2 (Gq signaling) [1] = assay: BRET0 assay, tricistronic Gq sensor, ligand-induced; format: cell-based, human
Procedure: (§1) To measure the self-activation of WT and mutant PAR2 in response to G protein activity, a tricistronic activity sensor assay was performed as previously described. The G protein sensor plasmids were obtained from Addgene (https://addgene.org/Gunnar_Schulte/). To measure constitutive activity, AD293 cells in 6-well plates were cotransfected with 500 ng of WT or mutant PAR2 and 500 ng of the G protein sensor construct (pcDNA-Gα-Nluc/Gβ3/cpVenus-Gγ9 fusion combination) with Lipofectamine 2000 (Invitrogen). After being incubated for 24 h at 37 °C in a 5% CO2 atmosphere, the transfected cells were seeded into white 96-well plates and grown for another 24 h. The cells were subsequently washed with HBSS and incubated with a 1:1000 dilution of furimazine stock solution. After incubation for 3 min at 37 °C, the BRET ratio was measured twice consecutively to assess constitutive receptor activity using an EnVision multimode plate reader (PerkinElmer). Nluc emission intensity was selected using a 450/40-nm monochromator, and cpVenus^173 emission was selected using a 535/30-nm monochromator with an integration time of 0.3 s in both channels. The ratio of cpVenus/Nluc intensity was calculated for each well and normalized to that of the vehicle control.
(§2) For ligand-induced BRET0 measurements, transfected cells were plated in 96-well plates for 24 h, after which the cells were washed with HBSS and incubated with a 1:1000 dilution of furimazine stock solution. After being incubated for 3 min at 37 °C, the cells were treated with the addition of ligand solutions or vehicle control. Plates were then subjected to BRET measurements with an EnVision plate reader (PerkinElmer) at 450/40-nm (Nluc-furimazine) and 535/30-nm to detect ligand-induced changes in the BRET signal. Like in the BRET2 assay, the BRET signal was calculated by the ratio of the intensity at 535 nm (cpVenus) to that at 450 nm (Nluc), and the Δnet BRET ratio was calculated by subtracting the intensity of the vehicle control from that of each experimental well. […]

PAR2 (G13 signaling) [2] = assay: BRET0 assay, tricistronic G13 sensor, ligand-induced; format: cell-based, human
Procedure: as §1, §2

PAR2 (G13 signaling) [3] = assay: BRET2 G13 dissociation assay; format: cell-based, human
Procedure: (§3) In accordance with previous methods, AD293 cells were plated in 6-well plates at 700,000–800,000 cells per well. After 1 day of growth at 37 °C with 5% CO2, the cells in each well were transfected with 100 ng of pcDNA3-PAR2 (Δ1–48) WT or mutants, 100 ng of Gα-RLuc8, 100 ng of Gβ, and 100 ng of Gγ-green fluorescent protein (Gγ-GFP) plasmids with Lipofectamine 2000 (Thermo Fisher Scientific). After being incubated for 1 day, the cells were collected, pelleted by centrifugation, and suspended in DMEM supplemented with 5% (v/v) FBS. The cell suspensions were dispensed in white 96-well plates at a density of 25,000–50,000 cells per well. One day after being plated, the growth medium was carefully aspirated and replaced immediately with 60 μL of 1× Hank’s balanced salt solution (HBSS) containing 20 mM HEPES (pH 7.4; assay buffer), followed by the addition of 10 μL of freshly prepared 50 μM coelenterazine 400a (Yeasen). After a 5-min equilibration period, the cells were treated with 30 μL of drug for an additional 5 min. The plates were then measured in an EnVision plate reader (PerkinElmer) with 395 nm (RLuc8-coelenterazine 400a) and 510 nm (GFP2) emission filters with integration times of 1 s. The BRET signal was calculated by the ratio of the luminescence intensity at 510 nm (GFP) to that at 395 nm (RLuc), and the Δnet BRET ratio was calculated by subtracting the luminescence intensity of the vehicle control from that of each experimental well (510 nm/395 nm). The data were subsequently plotted as a four-parameter sigmoidal concentration–response curve in GraphPad Prism 8.

PAR2 (Gq signaling) [4] = assay: BRET2 Gq dissociation assay; format: cell-based, human
Procedure: as §3

PAR2 (Gq signaling) [5] = assay: NanoBiT G protein dissociation assay, Gq; format: cell-based, human; conditions: mean ± SD
Procedure: (§4) Ligand-induced G protein activation was measured by a NanoBiT G protein dissociation assay, as described previously[11],[41]. Briefly, AD293 cells cultured in 6-well plates were transfected with plasmids encoding a large fragment (LgBiT)-containing Gαq or Gα13 subunit (100 ng), a small fragment (SmBiT)-fused Gβ1 subunit (500 ng), and the untagged Gγ2 subunit with a C68S mutation (500 ng) in combination with the WT PAR2 construct (200 ng). After being incubated for 1 day, the transfected cells were collected, pelleted by centrifugation, and suspended in HBSS containing 0.01% bovine serum albumin (Solarbio) and 5 mM HEPES (pH 7.4; assay buffer). The cell suspension was dispensed in white 96-well plates at a volume of 80 μL per well and mixed with 20 μL of 50 μM coelenterazine native (BIOSTNTH). After incubation for 2 h at RT, the baseline luminescence was measured, after which 20 μL of test compound (6×) was added, and subsequent luminescence measurements were performed to detect ligand-induced changes. Luminescence intensity measured from 3 min to 5 min after compound addition was normalized to the initial intensity, and the net luminescence was calculated by subtracting the luminescence ratio of the vehicle control from the normalized luminescence per well. The G protein dissociation signals were fitted to a four-parameter sigmoidal concentration–response curve (GraphPad Prism 8).

PAR2 (G13 signaling) [6] = assay: NanoBiT G protein dissociation assay, G13; format: cell-based, human; conditions: mean ± SD
Procedure: as §4

PAR2 [7] = conditions: cited from earlier work; for PAR2 activation: synthetic peptides mimicking the TL
Description: We used the N-terminal deletion construct of PAR2 (Δ1–48) as the backbone of the receptor to support downstream signaling, as it has lower intrinsic activity than the FL receptor does (Supplementary Fig. S1a).

PAR2 (Gi signaling) = assay: BRET0 assay, Gi sensor, ligand-induced; format: cell-based, human; conditions: AD293 cells, full-length (FL) PAR2, Fig. S1b
Procedure: as §1, with “The cells were subsequently washed with HBSS and incubated with a 1:1000 dilution of furimazine stock solution.” left out, “Nluc emission intensity was selected using a 450/40-nm monochromator, and cpVenus^173 emission was selected using a 535/30-nm monochromator with an integration time of 0.3 s in both channels.” left out
(§5) For ligand-induced BRET0 measurements, transfected cells were plated in 96-well plates for 24 h, after which the cells were washed with HBSS and incubated with a 1:1000 dilution of furimazine stock solution. […] Plates were then subjected to BRET measurements with an EnVision plate reader (PerkinElmer) at 450/40-nm (Nluc-furimazine) and 535/30-nm to detect ligand-induced changes in the BRET signal. […]

PAR2 (Gs signaling) [8] = assay: BRET0 assay, Gs sensor, ligand-induced; format: cell-based, human; conditions: AD293 cells, full-length (FL) PAR2, Fig. S1b
Procedure: as §1, with “The cells were subsequently washed with HBSS and incubated with a 1:1000 dilution of furimazine stock solution.” left out, “Nluc emission intensity was selected using a 450/40-nm monochromator, and cpVenus^173 emission was selected using a 535/30-nm monochromator with an integration time of 0.3 s in both channels.” left out
as §5

PAR2 (Gs signaling) [9] = conditions: full-length (FL) PAR2; cited from earlier work
Description: To mimic trypsin cleavage of PAR2 between R36 and S37, we removed residues 2–36 of PAR2 and allowed native methionine aminopeptidase (MAP) to remove the N-terminal methionine residue via a process termed N-terminal methionine processing that occurs naturally across prokaryotes and eukaryotes. We employed a bioluminescence resonance energy transfer (BRET) assay consisting of G protein-based tricistronic activity sensors (BRET0)[17] to quantitatively assess the constitutive activity of GPCR. This approach allowed us to measure the intrinsic activity of the PAR2 constructs. Compared with the ...

PAR2 [10] = conditions: cited from earlier work
PAR2 [11] = conditions: cited from earlier work; remark: listed apart in the source
[12] = PAR2 (Δ1–48) D62A, AD293 cells, mean ± SD, n = 3, Fig. 5b
[13] = PAR2 D62A, AD293 cells, n = 3, Fig. S5a
[14] = AD293 cells, full-length (FL) PAR2, Fig. S1b
[15] = BRET0, AD293 cells, mean ± SD, n = 3, Fig. S5b
[16] = PAR2 (Δ1–48) WT, AD293 cells, mean ± SD, n = 3, Fig. 5g
[17] = summary statement, assay not named (BRET2, BRET0, NanoBiT used)

Molecule: SLIGRL-NH2 [mouse tethered-ligand peptide used as synthetic WT peptide]
- Gq versus G13 bias, D62A mutant (PAR2 (Gq signaling) [1]; PAR2 D62A, AD293 cells, BRET0, mean ± SD, n = 3, Fig. S5a): clearly biased toward Gq signaling
- G13 activity, D62A mutant (PAR2 (G13 signaling) [2]; PAR2 D62A, AD293 cells, mean ± SD, n = 3, Fig. S5a): minimal G13 activity
- G13 activity, D62A mutant (PAR2 (G13 signaling) [3]; [12]): almost completely abolished G13 activity
- G13 receptor activity, D228A mutant (PAR2 (G13 signaling) [3]; PAR2 (Δ1–48) D228A, AD293 cells, mean ± SD, n = 3, Fig. 2c): strongly decreased receptor activity
- G13 receptor activity, H227A mutant (PAR2 (G13 signaling) [3]; PAR2 (Δ1–48) H227A, AD293 cells, mean ± SD, n = 3, Fig. S3h): decreased receptor activity
- G13 receptor activity, H310A mutant (PAR2 (G13 signaling) [3]; PAR2 (Δ1–48) H310A, AD293 cells, mean ± SD, n = 3, Fig. 2c): strongly decreased receptor activity
- G13 receptor activity, L230A mutant (PAR2 (G13 signaling) [3]; PAR2 (Δ1–48) L230A, AD293 cells, mean ± SD, n = 3, Fig. 2c): strongly decreased receptor activity
- G13 receptor activity, P231A mutant (PAR2 (G13 signaling) [3]; PAR2 (Δ1–48) P231A, AD293 cells, mean ± SD, n = 3, Fig. 2c): strongly decreased receptor activity
- G13 receptor activity, V229A mutant (PAR2 (G13 signaling) [3]; PAR2 (Δ1–48) V229A, AD293 cells, mean ± SD, n = 3, Fig. S3h): decreased receptor activity
- G13 receptor activity, Y311A mutant (PAR2 (G13 signaling) [3]; PAR2 (Δ1–48) Y311A, AD293 cells, mean ± SD, n = 3, Fig. 2c): strongly decreased receptor activity
- G13 receptor activity, Y323A mutant (PAR2 (G13 signaling) [3]; PAR2 (Δ1–48) Y323A, AD293 cells, mean ± SD, n = 3, Fig. 2c): strongly decreased receptor activity
- Gq activity, D62A mutant (PAR2 (Gq signaling) [4]; [12]): only had a minor effect on Gq activity
- Gq versus G13 bias, D62A mutant (PAR2 (Gq signaling) [5]; [13]): clearly biased toward Gq signaling
- G13 activity, D62A mutant (PAR2 (G13 signaling) [6]; [13]): minimal G13 activity
- inducing activity versus human ligand SLIGKV-NH2 (PAR2 [7]): much higher inducing activity than the human ligand
- PAR2 activation (PAR2 [7]): activating the receptor independently of protease cleavage

Molecule: SLIGKV [SLIGKV (TL), tethered ligand peptide of human PAR2]
- Gq signaling activation (PAR2 (Gq signaling) [1]; [14]): activated
- G13 signaling activation (PAR2 (G13 signaling) [2]; [14]): activated
- Gi signaling activation (PAR2 (Gi signaling)): activated
- Gs signaling activation (PAR2 (Gs signaling) [8]): had no effect on Gs signaling
- Gs signaling induction (PAR2 (Gs signaling) [9]): incapable of inducing Gs signaling

Molecule: SLVGRL-NH2 [synthetic peptide with valine at third TL residue; Gq-biased ligand]
- Gq versus G13 bias (PAR2 (Gq signaling) [1]; [15]): strong bias toward Gq signaling
- G13 activity (PAR2 (G13 signaling) [2]; [15]): minimal G13 activity
- G13 activity relative to WT peptide (PAR2 (G13 signaling) [3]; [16]): lost most of the G13 activity
- G13 signaling (discussion summary) (PAR2 (G13 signaling) [3]; [17]): minimal effect on G13 signaling
- Gq activity relative to WT peptide (PAR2 (Gq signaling) [4]; [16]): maintained most of the Gq activity of the WT peptide
- Gq signaling (discussion summary) (PAR2 (Gq signaling) [4]; [17]): predominantly activates Gq signaling
- Gq versus G13 bias (PAR2 (Gq signaling) [5]; WT PAR2, AD293 cells, n = 3, Fig. S5b): strong bias toward Gq signaling
- G13 activity (PAR2 (G13 signaling) [6]; NanoBiT, WT PAR2, AD293 cells, n = 3, Fig. S5b): minimal G13 activity

Molecule: 2-furoyl-LIGRL-NH2
- PAR2 activation (PAR2 [7]): activating the receptor independently of protease cleavage

Molecule: SLIGKV-NH2 [human tethered-ligand synthetic peptide]
- PAR2 activation (PAR2 [7]): activating the receptor independently of protease cleavage

Molecule: C/C(=N\NC(=O)[C@H]1C(=O)NC[C@@H]1c1ccccc1)c1cccc(Br)c1 [AC264613]
- PAR2 agonism (PAR2 [7]; reference not given): potent PAR2-selective agonist

Molecule: 2f-LAAAAI-NH2 [DF253]
- PAR2-mediated Ca2+ release (PAR2 [10]): trigger PAR2-mediated Ca^2+ release
- ERK1/2 phosphorylation (PAR2 [11]): without inducing ERK1/2 phosphorylation

Molecule: Isox-Cha-Chg-Chg-A-R-NH2 [AY254]
- ERK1/2 phosphorylation (PAR2 [11]): ERK-biased agonist

Molecule: CC[C@H](C)[C@H](NC(=O)[C@H](CC1CCCCC1)NC(=O)c1ccno1)C(=O)N1CCC2(C=Cc3ccccc32)CC1 [GB88]
- PAR2 agonism (PAR2 [7]): partial PAR2 agonist

Molecule: SLAGRL-NH2
- efficacy (PAR2 [7]): significantly lower efficacy

B1: NE: neutrophil elastase, protease cleaving PAR2 between S67↓V68 (protein, UniProt P08246 30-267, looked up)
Neutrophil elastase: IVGGRRARPHAWPFMVSLQLRGGHFCGATLIAPNFVMSAAHCVANVNVRAVRVVLGAHNLSRREPTRQVFAVQRIFENGYDPVNLLNDIVILQLNGSATINANVQVAQLPAQGRRLGNGVQCLAMGWGLLGRNRGIASVLQELNVTVVTSLCRRSNVCTLVRGRQAGVCFGDSGSPLVCNGLIHGIASFVRGGCASGLYPDAFAPVAQFVNWIDSIIQRSEDNPCPHPRDPDPASRTH
- Ca2+ release on PAR2 cleavage (PAR2 [10]; cleavage at E56↓T57 (CS) or S67↓V68 (NE)): not Ca^2+ release
- ERK1/2 activation on PAR2 cleavage (PAR2 [11]; cleavage at S67↓V68): activates ERK1/2
